Assay results: patent publication US20060030537A1, “Ceramide kinase and uses thereof” (priority 2004, published 2006)

How the values were obtained:
sphingosine kinase-1 = assay: Immunoreactive levels of sphingosine kinase-1 after ceramide kinase RNAi; format: cell-based; conditions: cells transfected with RNAi targeted to ceramide kinase
ceramide kinase = assay: Ceramide kinase assay on lysates of treated or transfected A549 cells; format: cell-based, human; conditions: 26 hours after transfection
Description: FIGS. 5A-5C. IL-1β and calcium ionophore increase ceramide-1-phosphate production and ceramide kinase activity. FIGS. 5A and 5B. The effect of IL-1 and A23187 on C-1-P levels and AA liberation. A549 cells (2×10^5) were labeled overnight with 10 μCi/mL [^3H]-arachidonic acid (10 nM), washed, and then treated with either 2.5 ng/mL of IL-1β (FIG. 5A) or 1 μg/mL of A23187 (FIG. 5B) for the indicated times. Two hours prior to Bligh-Dyer extraction, cells were chased with 20 μM of D-e-C6 NBD-ceramide (Matreya). At the appropriate times, media was taken for AA analysis, and lipids from the cells were extracted by the Bligh-Dyer method followed by analysis of NBD-C-1-P formation. Data are presented as % control of C-1-P levels (J) and AA release (B). Data are representative of three separate determinations on 2 separate occasions. FIG. 5C. IL-1β and calcium ionophore increase ceramide kinase activity. A549 cells (5×10^5) were treated with either 2.5 ng/mL of IL-1β for 3.5 hours or 1 μg/mL of A23187 for 5 minutes. Cells were then washed, lysed in assay buffer, and assayed for ceramide kinase activity. Data is presented as % control of ceramide kinase activity (Arbitrary densitometry units of fluorescent NBD-C-1-P produced/min/mg of total cellular protein). Data are representative of three separate determinations on 2 separate occasions.
FIGS. 6A-6B. Ceramide kinase RNAi downregulates endogenous ceramide kinase activity and mRNA levels. FIG. 6A. The effect of ceramide kinase RNAi on endogenous ceramide kinase activity. […] Following the same procedure as outlined in FIG. 6A, total RNA was extracted and analyzed via logarithmic reverse-transcriptase polymerase chain reaction for human ceramide kinase and 18s ribosomal RNA. […]
Ceramide Kinase Assay: Ceramide kinase activity was measured as described previously with slight modifications (Bajjalieh, S., and Batchelor, R. (2001) Methods Enzymol. 311, 207-215). […] Following Bligh-Dyer extraction, lipids were separated by thin layer chromatography, and NBD-C-1-P was visualized/quantified by fluorescent phosphorimaging.

L929 fibroblasts = assay: AA release in L929 fibroblasts; format: cell-based
Description: FIGS. 3A-3B. FIG. 3A. The effects of ceramide-1-phosphate on TXB2 synthesis. A549 cells (1×10^5) were treated with D-e-C16 ceramide-1-phosphate (1 μM) solubilized in 2% dodecane/98% ethanol (final concentration in treatments was 0.002% dodecane/0.098% ethanol (EtOH)) for the indicated times. The results are presented as % control of TXB2 controlled for equivalent number of cells by MTT assay. Data are representative of 3 separate determinations on 2 separate occasions. FIG. 3B. The effects of ceramide-1-phosphate on AA release and PGE2 synthesis in L929 fibroblasts. L929 cells (5×10^4) were labeled overnight with 5 μCi/mL [^3H]-arachidonic acid (5 nM). Cells were washed and placed in DMEM supplemented with 2% fetal bovine serum for two hours. […]
Quantification of arachidonic acid (AA) release: A549 cells (5×10^4) were labeled overnight with 5 μCi/mL [^3H]-AA (5 nM) (NEN). […] Following treatment, media was transferred to 1.5 mL polypropylene tubes, centrifuged at 10,000×g, and ^3H-AA cpm determined by scintillation counting. Results were controlled for equivalent number of cells quantified by MTT assay as described (Chalfant, C. E., Rathman, K., Pinkerman, R. L., Wood, R. E., Obeid, L. M., Ogretmen, B., and Hannun, Y. A. (2002) J. Biol. Chem. 277, 12587-12595) and by verification of total AA labeling by scintillation counting. […]

Substance: ceramide kinase RNAi: 21-nucleotide duplex, human ceramide kinase RNAi starting 142 nucleotides from start codon (SEQ ID NO: 3 and 4) (chain 1 UGCCUGCUCUGUGCCUGUATT; chain 2 UACAGGCACAGAGCAGGCATT; chemistry not given here)
- immunoreactive levels of sphingosine kinase-1 (sphingosine kinase-1): no decrease
- decrease of endogenous ceramide kinase activity (ceramide kinase): 67%
- inhibition of AA release in response to IL-1β (L929 fibroblasts): over 60%
